The conditions of the data set: 101.33 kPa, Liquid; for viscosity: Capillary tube (Ostwald / Ubbelohde) method; for mass density: Vibrating tube method.

Numbers after ± are expanded uncertainties.

The viscosity is the internal friction of a fluid under shear. The mass density is mass per unit of volume.

For `c1ccccc1` [benzene], the viscosity stood at 0.601 ± 0.007 mPa·s (298.15 K), 0.563 ± 0.007 mPa·s (303.15 K), 0.494 ± 0.007 mPa·s (313.15 K) and 0.436 ± 0.007 mPa·s (323.15 K). The mass density by setting is: (298.15 K) 873.58 ± 0.09 kg/m3; (303.15 K) 868.23 ± 0.09 kg/m3; (313.15 K) 857.38 ± 0.1 kg/m3; (323.15 K) 846.62 ± 0.1 kg/m3.
Consider `Cc1ccccc1` [toluene], for which the viscosity (298.15 K) was 0.553 ± 0.007 mPa·s, the viscosity (303.15 K) was 0.523 ± 0.007 mPa·s, the viscosity (313.15 K) was 0.471 ± 0.007 mPa·s and the viscosity (323.15 K) was 0.422 ± 0.007 mPa·s. Moreover, the mass density (298.15 K) is given as 862.11 ± 0.23 kg/m3, the mass density (303.15 K) amounted to 857.62 ± 0.23 kg/m3, the mass density (313.15 K) came out at 847.87 ± 0.25 kg/m3 and the mass density (323.15 K) is 838.42 ± 0.29 kg/m3.
For `C1CCCCC1` [cyclohexane], the viscosity (298.15 K) was 0.904 ± 0.009 mPa·s, the viscosity (303.15 K) is on record as 0.809 ± 0.009 mPa·s, the viscosity (313.15 K) was 0.698 ± 0.008 mPa·s and the viscosity (323.15 K) is on record as 0.604 ± 0.008 mPa·s. Also, the mass density runs as follows: (298.15 K) 773.25 ± 0.24 kg/m3; (303.15 K) 769.18 ± 0.24 kg/m3; (313.15 K) 759.58 ± 0.24 kg/m3; (323.15 K) 750.03 ± 0.24 kg/m3.
As for `CN1CCOCC1` [N-methylmorpholine], the viscosity (298.15 K) was 0.881 ± 0.012 mPa·s, the viscosity (303.15 K) is 0.864 ± 0.012 mPa·s, the viscosity (313.15 K) came out at 0.833 ± 0.011 mPa·s and the viscosity (323.15 K) is listed as 0.814 ± 0.011 mPa·s. Further, the mass density is given as 914.06 ± 0.74 kg/m3 (298.15 K), 909.44 ± 0.73 kg/m3 (303.15 K), 899.76 ± 0.72 kg/m3 (313.15 K) and 890.85 ± 0.71 kg/m3 (323.15 K).

Source of the values: the NIST ThermoML archive (doi:10.1016/j.jct.2007.11.002).
